The subject of data set [1] is HHA1 luciferase (fusion of Luciola lateralis luciferase N-terminal, from pHLf7-217Leu, and Photinus pyralis luciferase C-terminal, SEQ ID NO:10). Nature of the data set: Km for substrate ATP, peak light emission (Tricine pH 7.8). In kind it is biochemical. Particulars: read-out: Km (affinity for ATP); ATP 0 to 2 mM, 50 mM Tricine buffer (pH 7.8), 0.2 mM luciferin, 10 mM MgSO4. The method, then: 50 ng of the above EcoRV--EcoRV fragment from pT3/T7-LUC and 50 ng of the above EcoRV-NaeI fragment from pHLf7-217Leu were incubated at 15° C. for 16 hours in 20 μ l DNA ligase buffer in the presence of 300 U of T4 DNA ligase. The reaction mixture was used to transform E. coli JM 109 by the Hana-han method [DNA Cloning, 1, 109-135 (1985)], and ampicillin-resistant colonies were selected. A crude enzyme was prepared from the selected colonies in the method described in Example 1, and a plasmid was removed by the alkali-SDS method from those having luminescence activity, and the structure of the plasmid was confirmed. This plasmid was subjected to reaction with a dye primer tuck sequencing kit (Applied Biosystems) and analyzed by electrophoresis with an ABI 373A DNA sequencer (Applied Biosystems) to determine its nucleotide sequence (SEQ ID NO:9). The amino acid sequence of a polypeptide estimated to be translated from said nucleotide sequence is shown in SEQ ID NO:10. The plasmid thus obtained was designated pHHA1.
(§1) Further, its crude enzyme solution was prepared using the method described in Example 1 and the enzyme was purified in a method described in Japanese Patent Application Laid-Open Publication No. 141592/89. The purified enzyme was designated HHA1 luciferase.

The test system of data set [2] is GGA1 luciferase variant GGA1 T219I (219-position Thr to Ile). The data set can be described thus: Catalytic efficiency (Vmax/Km) toward ATP, integrated light emission. In kind it is biochemical, Luciola cruciata / Photinus pyralis. The note with it: ATP 0 to 1.0×10^-3 mM, 50 mM Tricine buffer (pH 7.8), 2.0 mM luciferin, 10 mM MgSO4; light integrated 5 to 15 seconds. The method, then: (§2) The resulting transformant was inoculated on an LB-amp plate [1.0% (W/V) Bacto-trypton, 0.5% (W/V) yeast extract, 0.5% (W/V) NaCl, 1.5% (W/V) agar and 50 μ g/ml ampicillin] and cultured at 37° C. for 12 hours. The resulting colonies were transferred onto a nitrocellulose filter, and said filter was immersed in 0.1 M sodium citrate buffer (pH 5.0) containing 0.5 mM luciferin [Wood & DeLuca, Anal. Biochem., 161, 501-507 (1987)]. The emission of light from said colonies was monitored, and 3 strains with raised emission could be obtained. These strains were designated E. coli JM 109 (pGGA2-1), E. coli JM 109 (pGGA1-4) and E. coli JM 109 (pGGA2-4), respectively. The E. coli JM 109 (pGGA2-1), E. coli JM 109 (pGGA1-4) and E. coli JM 109 (pGGA2-4) thus obtained have been deposited respectively as FERM BP-6206, FERM BP-6205 and FERM BP-6204 with the National Institute of Bioscience and Human-Technology, Agency of Industrial Science and Technology. Plasmids were removed from these strains by alkali-SDS method. These plasmids were subjected to reaction with a dye primer tuck sequencing kit (Applied Biosystems) and analyzed by electrophoresis with an ABI 373A DNA sequencer (Applied Biosystems) to determine their mutation sites (Table 4).
(§3) From the E. coli JM 109 (pGGA2-1), E. coli JM 109 (pGGA1-4), E. coli JM 109 (pGGA2-4), their crude enzyme solutions were extracted by the method described in Example 1, and these mutant enzymes were purified in the method described in Japanese Patent Laid-Open Publication No. 141592/1989.The purified enzymes were designated GGA1 T219I luciferase, GGA1 V290I luciferase and GGA1 V239I luciferase, respectively. […] The emission of light from 5 seconds to 15 seconds after initiation of the reaction was integrated in Luminometer ML3000 (Dynatech) to determine catalytic efficiency (Vmax/Km). As shown in the table below, it was confirmed that as compared with the GGA1 luciferase, catalytic efficiency was improved by mutating each of the amino acids at the 219-, 290-, and 239-positions.

For data set [3], the system named is GGA1 luciferase variant GGA1 V239I (239-position Val to Ile). The data set is described as above. In kind it is biochemical, Luciola cruciata / Photinus pyralis. Particulars: ATP 0 to 1.0×10^-3 mM, 50 mM Tricine buffer (pH 7.8), 2.0 mM luciferin, 10 mM MgSO4; light integrated 5 to 15 seconds. The method, then:
as §2, §3

The subject of data set [4] is GGA1 luciferase variant GGA1 V290I (290-position Val to Ile). The data set is described as above. Particulars: ATP 0 to 1.0×10^-3 mM, 50 mM Tricine buffer (pH 7.8), 2.0 mM luciferin, 10 mM MgSO4; light integrated 5 to 15 seconds. In kind it is biochemical, Luciola cruciata / Photinus pyralis. The method, then:
as §2, §3

Data set [5] relates to GGA1 luciferase (fusion of thermostable Luciola cruciata luciferase N-terminal, Thr217Ile, and Photinus pyralis luciferase C-terminal, SEQ ID NO:7). Type of data set: biochemical. Particulars: read-out: Km for the substrate ATP; purified GGA1 enzyme, Table 2.
In data set [6] the target is T1, Luciola cruciata luciferase, wild type (Nipponoluciola cruciata, UniProt P13129).
T1 sequence (P13129 1-548): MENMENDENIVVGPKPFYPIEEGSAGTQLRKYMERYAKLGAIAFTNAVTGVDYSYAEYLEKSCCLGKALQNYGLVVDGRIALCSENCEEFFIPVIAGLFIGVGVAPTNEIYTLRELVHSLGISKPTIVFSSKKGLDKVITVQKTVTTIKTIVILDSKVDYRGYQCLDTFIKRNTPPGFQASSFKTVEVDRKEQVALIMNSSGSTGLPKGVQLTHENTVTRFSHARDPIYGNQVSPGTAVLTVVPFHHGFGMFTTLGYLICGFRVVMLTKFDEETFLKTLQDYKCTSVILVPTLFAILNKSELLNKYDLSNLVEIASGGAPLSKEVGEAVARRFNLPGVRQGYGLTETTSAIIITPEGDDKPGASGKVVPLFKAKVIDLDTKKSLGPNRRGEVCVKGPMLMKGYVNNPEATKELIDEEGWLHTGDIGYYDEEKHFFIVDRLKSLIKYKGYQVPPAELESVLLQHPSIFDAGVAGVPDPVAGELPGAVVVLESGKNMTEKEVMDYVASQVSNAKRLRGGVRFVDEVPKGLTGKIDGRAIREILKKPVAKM
The data set can be described thus: Km for substrate ATP, peak light emission (HEPES pH 7.5). Type of data set: biochemical. The note with it: read-out: Km for the substrate ATP; ATP 0 to 2 mM, 50 mM HEPES (pH 7.5), 0.2 mM luciferin, 10 mM MgSO4.

The target of data set [7] is Photinus pyralis luciferase, wild type (Photinus pyralis, UniProt P08659). The data set is described as above. Type of data set: biochemical. The note with it: read-out: Km for the substrate ATP; ATP 0 to 2 mM, 50 mM HEPES (pH 7.5), 0.2 mM luciferin, 10 mM MgSO4.
The target in data set [8] is Photinus pyralis luciferase (Photinus pyralis, UniProt P08659). The data set can be described thus: Km for substrate ATP, peak light emission (Tricine pH 7.8). Type of data set: biochemical. Particulars: read-out: Km (affinity for ATP); ATP 0 to 2 mM, 50 mM Tricine buffer (pH 7.8), 0.2 mM luciferin, 10 mM MgSO4. The method, then:
as §1

In data set [9] the test system is GA1 luciferase (fusion of Luciola cruciata luciferase N-terminal portion and Photinus pyralis luciferase C-terminal portion, SEQ ID NO:5). Nature of the data set: Km for substrate ATP, peak light emission (HEPES pH 7.5). Type of data set: biochemical. The note with it: read-out: Km for the substrate ATP; ATP 0 to 2 mM, 50 mM HEPES (pH 7.5), 0.2 mM luciferin, 10 mM MgSO4.

Substrate in data set [10]: Nc1ncnc2c1ncn2[C@@H]1O[C@H](COP(=O)(O)OP(=O)(O)OP(=O)(O)O)[C@@H](O)[C@H]1O
The data set can be described thus: cells, lysate or membranes named. Type of data set: biochemical, Luciola lateralis. The note with it: other: ATP 0 to 2 mM, 50 mM Tricine buffer (pH 7.8), 0.2 mM luciferin, 10 mM MgSO4. The method, then: as §1

Sequence of Photinus pyralis luciferase (P08659 whole entry): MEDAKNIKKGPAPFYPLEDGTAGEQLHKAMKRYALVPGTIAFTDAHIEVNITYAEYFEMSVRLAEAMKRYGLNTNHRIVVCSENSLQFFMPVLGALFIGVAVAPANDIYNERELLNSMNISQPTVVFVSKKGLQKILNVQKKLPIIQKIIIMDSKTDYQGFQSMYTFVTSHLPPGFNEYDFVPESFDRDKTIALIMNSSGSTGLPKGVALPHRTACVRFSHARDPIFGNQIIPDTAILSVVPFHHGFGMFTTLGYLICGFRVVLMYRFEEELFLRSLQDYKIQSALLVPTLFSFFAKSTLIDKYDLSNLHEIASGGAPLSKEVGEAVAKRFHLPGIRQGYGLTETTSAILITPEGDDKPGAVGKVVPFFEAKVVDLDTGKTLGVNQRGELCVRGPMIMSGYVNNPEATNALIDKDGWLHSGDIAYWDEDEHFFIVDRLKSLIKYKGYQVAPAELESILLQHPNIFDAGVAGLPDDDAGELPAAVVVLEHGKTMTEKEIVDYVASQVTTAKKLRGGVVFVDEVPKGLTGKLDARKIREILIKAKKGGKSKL
Sequence of Photinus pyralis luciferase, wild type (P08659 whole entry): as above

A word on the Km: it is the substrate concentration at which the rate is half of its maximum. With `Nc1ncnc2c1ncn2[C@@H]1O[C@H](COP(=O)(O)OP(=O)(O)OP(=O)(O)O)[C@@H](O)[C@H]1O` [ATP], the Km turned out to be 123 µM in data set [1]; 104 µM in data set [5]; 301 µM in [6]; 152 µM in [7]; 161 µM in data set [8]; 26.5 µM in [9]. The “Vmax/Km toward the substrate ATP” value in [2] is on record as 2.16 × 10^9 RLU/mg; in [3] it was 1.58 × 10^9 RLU/mg; in data set [4], 1.70 × 10^9 RLU/mg.

B1: Luciola lateralis luciferase (Aquatica lateralis) (protein)
chain: MENMENDENIVYGPEPFYPIEEGSAGAQLRKYMDRYAKLGAIAFTNALTGVDYTYAEYLEKSCCLGEALKNYGLVVDGRIALCSENCEEFFIPVLAGLFIGVGVAPTNEIYTLRELVHSLGISKPTIVFSSKKGLDKVITVQKTVTAIKTIVILDSKVDYRGYQSMDNFIKKNTPQGFKGSSFKTVEVNRKEQVALIMNSSGSTGLPKGVQLTHENAVTRFSHARDPIYGNQVSPGTAILTVVPFHHGFGMFTTLGYLTCGFRIVMLTKFDEETFLKTLQDYKCSSVILVPTLFAILNRSELLDKYDLSNLVEIASGGAPLSKEIGEAVARRFNLPGVRQGYGLTETTSAIIITPEGDDKPGASGKVVPLFKAKVIDLDTKKTLGPNRRGEVCVKGPMLMKGYVDNPEATREIIDEEGWLHTGDIGYYDEEKHFFIVDRLKSLIKYKGYQVPPAELESVLLQHPNIFDAGVAGVPDPIAGELPGAVVVLEKGKSMTEKEVMDYVASQVSNAKRLRGGVRFVDEVPKGLTGKIDGKAIREILKKPVAKM
B1: the Km in [10] is 197 µM.
